Laboratory results taken from patent US20070093483A1, “Use of derivatives of 2, 4-dihydro-[1,2,4] triazole-3-thione as inhibitors of the enzyme myeloperoxidase (mpo)” (ASTRAZENECA AB, priority 2003, published 2007).

Target: T1, human MPO (Homo sapiens, UniProt P05164)
T1 sequence (P05164 49-745): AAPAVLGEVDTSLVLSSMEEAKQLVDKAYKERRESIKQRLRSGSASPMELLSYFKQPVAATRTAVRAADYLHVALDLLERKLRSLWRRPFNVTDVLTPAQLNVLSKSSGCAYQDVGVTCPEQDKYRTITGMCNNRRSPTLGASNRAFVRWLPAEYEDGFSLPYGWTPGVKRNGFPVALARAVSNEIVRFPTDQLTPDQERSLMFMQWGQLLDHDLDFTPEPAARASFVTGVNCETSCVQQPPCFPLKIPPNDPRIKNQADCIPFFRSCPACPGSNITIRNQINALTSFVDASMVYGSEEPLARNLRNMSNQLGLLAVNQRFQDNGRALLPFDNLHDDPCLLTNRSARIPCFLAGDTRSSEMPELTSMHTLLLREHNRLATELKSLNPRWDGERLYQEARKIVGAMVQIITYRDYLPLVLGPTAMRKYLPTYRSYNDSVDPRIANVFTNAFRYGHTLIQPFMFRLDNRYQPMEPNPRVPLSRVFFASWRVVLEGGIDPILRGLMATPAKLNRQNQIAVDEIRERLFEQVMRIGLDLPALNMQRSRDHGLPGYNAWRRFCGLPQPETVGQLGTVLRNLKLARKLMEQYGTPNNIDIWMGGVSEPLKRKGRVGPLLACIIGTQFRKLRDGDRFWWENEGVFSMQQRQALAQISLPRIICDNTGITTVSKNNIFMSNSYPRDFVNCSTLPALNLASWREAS
Assay: MPO inhibition screen (TMB oxidation, absorbance), with or without added tyrosine
Format: biochemical
Conditions: in the presence of tyrosine (final 8 uM); human MPO 2.5 nM; H2O2 100 μM; pH 6.5
Protocol: Methods for the determination of MPO inhibitory activity are disclosed in co-pending patent application WO 02/090575. The pharmacological activity of compounds according to the invention was tested in the following screen in which the compounds were either tested alone or in the presence of added tyrosine:
Assay buffer: 20 mM sodium/potassium phosphate buffer pH 6.5 containing 10 mM taurine and 100 mM NaCl.
Developing reagent: 2 mM 3,3 ′,5,5′-tetramethylbenzidine (TMB), 200 μM KI, 200 mM acetate buffer pH 5.4 with 20% DNF.
To 10 μl of diluted compounds in assay buffer, 40 μl of human MPO (final concentration 2.5 nM), with or without 20 μM tyrosine (final concentration, if present, 8 uM), was added and the mixture was incubated for 10 minutes at ambient temperature. Then 50 μl of H2O2 (final concentration 100 μM), or assay buffer alone as a control, were added. After incubation for 10 minutes at ambient temperature, the reaction was stopped by adding 10 μl 0.2 mg/ml of catalase (final concentration 18 μg/ml). The reaction mixture was left for an additional 5 minutes before 100 μl of TMB developing reagent was added. The amount of oxidised 3,3′,5,5′-tetramethylbenzidine formed was then measured after about 5 minutes using absorbance spectroscopy at about […]. IC50 values were then determined using standard procedures.

Row | IC50 | SMILES
1 | 3.9 µM | Fc1ccc(-n2c(Cc3ccccc3Cl)n[nH]c2=S)cc1 [Example 29, 5-(2-Chlorobenzyl)-4-(4-fluorophenyl)-2,4-dihydro-[1,2,4]triazole-3-thione]
2 | 7.2 µM | Cc1ccccc1-n1c(Cc2c[nH]c3ccccc23)n[nH]c1=S [Example 74, 5-(1H-Indol-3-ylmethyl)-4-(2-methylphenyl)-2,4-dihydro-[1,2,4]triazole-3-thione]
3 | 23.6 µM | OCC(c1ccccc1)c1n[nH]c(=S)n1-c1ccccc1 (stereo not shown) [Example 57, 5-(2-Hydroxy-1-phenylethyl)-4-phenyl-2,4-dihydro-[1,2,4]triazole-3-thione]
4 | 11.3 µM | COc1ccc(OCc2n[nH]c(=S)n2CC2CCCO2)cc1 (stereo not shown) [Example 20, 5-(4-Methoxyphenoxymethyl)-4-(2-tetrahydrofuran-2-yl-methyl)-2,4-dihydro-[1,2,4]triazole-3-thione]
